Legend:
[1] = tested on: SK-OV-3 ovarian cancer xenograft (ARID1A mutation); test: SK-OV-3 ovarian cancer xenograft efficacy study; assay type: in vivo, athymic nude mice
Method: The tumor was identified as harboring an ARID1A mutation. […] Control and 35 mg/kg group n=10. Horizontal black line is 35 mg/kg group tumour volume on Day 0.
(§1) The in vivo efficacy of Compound A was investigated in xenograft tumours in athymic nude mice with a focus on ovarian cancers. […] Of the seven cell lines, SK-OV-3; TOV-21G, OVISE, and IGROV1 were identified as harboring an ARID1A mutation, while OVCAR-5, ES-2, and RMG1 were ARID1A wildtype.
(§2) Once the tumours were established, mice were randomised into vehicle control and treatment groups. Mice in both the vehicle control and treatment groups that were removed during the course of the study due to spontaneous or treatment derived tumour regression, tumour growth approaching license limits, tumour ulceration or loss of condition were excluded from the final analysis of the mean tumour volume and standard error of the mean and up to the point they were removed from the study. The number of mice undergoing complete tumour regression in the treatment group is noted where applicable.
(§3) Two groups of 12 female NCr nude mice (3 groups of 10 for SK-OV-3) were injected with 3-5×10^6 cells of one of the above cancer cell lines, subcutaneously. […] Body weights were taken daily and animals were monitored for signs of toxicity. […]

[2] = tested on: TOV-21G ovarian cancer xenograft (ARID1A mutation); test: TOV-21G ovarian cancer xenograft efficacy study; assay type: in vivo, NCr nude mice; conditions: TOV-21G xenograft, 35 mg/kg oral once daily, 5/7 days, 21/19 doses/study days
Method: The tumor was identified as harboring an ARID1A mutation. […] Vehicle control group n=8 and 35 mg/kg dose group n=11.
as §1, §2, §3

[3] = tested on: OVISE ovarian cancer xenograft (ARID1A mutation); test: OVISE ovarian cancer xenograft efficacy study; assay type: in vivo, NCr nude mice; conditions: 35 mg/kg oral once daily, 5/7 days, 38/52 doses/study days
Description: as §1, §2
(§4) Two groups of 12 female NCr nude mice (3 groups of 10 for SK-OV-3) were injected with 3-5×10^6 cells of one of the above cancer cell lines, subcutaneously. […] Body weights were taken daily and animals were monitored for signs of toxicity. To evaluate drug levels the animals were euthanised in batches of 3 to 4 at 2, 6 and 24 hours after the last dose and terminal plasma and tumour samples collected for PK analysis.

[4] = tested on: IGROV1 ovarian cancer xenograft (ARID1A mutation); test: IGROV1 ovarian cancer xenograft efficacy study; assay type: in vivo, NCr nude mice; conditions: 35 mg/kg oral once daily, intermittent, 11/15 doses/study days
Description: as §1, §2, §4

[5] = tested on: ES-2 ovarian cancer xenograft (ARID1A wildtype)
Description: as §2, §4

[6] = tested on: OVCAR-5 ovarian cancer xenograft (ARID1A wildtype)
Description: as §2, §4

[7] = tested on: RMG1 ovarian cancer xenograft (ARID1A wildtype)
Description: as §2, §4

CCN1CCN(Cc2ccc3cc(C(=O)Nc4cc(NC(=O)c5ccc6c(c5)OCCO6)ccc4F)ccc3n2)CC1 [Compound A, N-(5-(2,3-Dihydrobenzo[b][1,4]dioxine-6-carboxamido)-2-fluorophenyl)-2-((4-ethylpiperazin-1-yl)methyl)quinoline-6-carboxamide]
sensitivity in xenograft models (in words) ([1]; SK-OV-3, ARID1A mutated, compared with the other six xenografts): most sensitive cell line in xenograft models
TGI (%) ([1]; SK-OV-3 xenograft, 35 mg/kg oral once daily, continuous, 20/20 doses/study days): 120%
TGI (%) [2]: 81%
TGI (%) [3]: 70%
TGI (%) [4]: 56%
efficacy in xenograft model (in words) ([5]; ES-2 ARID1A wild type model, criterion TGI>50%): did not meet the criteria for efficacy
TGI (%) ([5]; ES-2 xenograft, 35 mg/kg oral once daily, 5/7 days, 12/17 doses/study days): 12%
efficacy in xenograft model (in words) ([6]; OVCAR-5 ARID1A wild type model, criterion TGI>50%): did not meet the criteria for efficacy
TGI (%) ([6]; OVCAR-5 xenograft, 35 mg/kg oral once daily, 5/7 days, 21/27 doses/study days): 27%
inhibition of xenograft tumour growth (in words) ([7]; RMG1 ARID1A wildtype model): No inhibition of xenograft tumour growth
TGI (%) ([7]; RMG1 xenograft, 35 mg/kg oral once daily, 5/7 days, 15/19 doses/study days): −3.0%
